The values below come from paper PMC4648043, “Development of Small-Molecule Trypanosoma brucei N-Myristoyltransferase Inhibitors: Discovery and Optimisation of a Novel Binding Mode” (Chemmedchem, 2015).

As a reminder, the EC50 is the concentration needed to bring the measured effect to its halfway point. In general, IC50 refers to the midpoint of a concentration-inhibition curve.

One data set concerns T. brucei. Description: T. brucei parasite growth assay. It is filed as cell-based, Trypanosoma brucei. The following applies: for EC50: Trypanosoma brucei, mean of two or more determinations; for Selectivity ratio: hNMT IC50/T. brucei cell assay EC50.
A further data set has as its target T1, hNMT (Homo sapiens, UniProt P30419).
T1 sequence (P30419 1-496): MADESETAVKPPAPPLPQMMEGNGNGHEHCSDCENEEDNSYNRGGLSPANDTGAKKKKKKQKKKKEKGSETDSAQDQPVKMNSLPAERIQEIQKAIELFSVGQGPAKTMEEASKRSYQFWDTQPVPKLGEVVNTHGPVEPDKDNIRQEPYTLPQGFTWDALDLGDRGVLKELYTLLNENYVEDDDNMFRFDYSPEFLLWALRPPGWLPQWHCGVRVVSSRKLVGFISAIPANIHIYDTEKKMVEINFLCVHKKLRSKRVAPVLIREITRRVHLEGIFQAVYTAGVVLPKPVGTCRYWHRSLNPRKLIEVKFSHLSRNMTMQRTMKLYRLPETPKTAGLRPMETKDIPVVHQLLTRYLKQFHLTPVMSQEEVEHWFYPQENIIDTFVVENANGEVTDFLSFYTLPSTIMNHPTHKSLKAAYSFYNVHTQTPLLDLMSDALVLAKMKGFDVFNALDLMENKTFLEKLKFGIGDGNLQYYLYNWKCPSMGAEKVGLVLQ
The data set can be described thus: human NMT enzyme inhibition assay. The data set is classed as biochemical. The conditions noted are these: mean of two or more determinations.

In the next data set the target is T2, TbNMT (Trypanosoma brucei brucei, UniProt Q388H8).
T2 sequence (Q388H8 1-446): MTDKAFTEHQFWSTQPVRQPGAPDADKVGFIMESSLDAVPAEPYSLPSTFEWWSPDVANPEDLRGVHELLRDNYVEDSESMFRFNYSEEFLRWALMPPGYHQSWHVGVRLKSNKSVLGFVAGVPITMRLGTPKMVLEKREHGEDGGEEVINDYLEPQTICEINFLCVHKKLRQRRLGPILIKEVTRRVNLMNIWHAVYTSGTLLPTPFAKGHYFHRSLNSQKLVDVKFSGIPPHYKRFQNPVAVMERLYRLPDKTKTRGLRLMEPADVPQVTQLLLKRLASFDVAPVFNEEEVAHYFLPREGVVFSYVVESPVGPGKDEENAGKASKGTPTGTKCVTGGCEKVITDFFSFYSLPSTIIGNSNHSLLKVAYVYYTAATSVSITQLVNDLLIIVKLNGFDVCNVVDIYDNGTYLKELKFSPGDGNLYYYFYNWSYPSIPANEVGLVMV
Description: biochemical. It is filed as biochemical. The conditions noted are these: for LE TbNMT (ligand efficiency): calculated as 0.6 ln(IC50)/(heavy atom count); for IC50: mean of two or more determinations.

For another data set, the system named is hMRC5. Description: MRC5 cell assay. The data set is classed as cell-based. The following applies: Homo sapiens, mean of two or more determinations.
Data set [1] can be described thus: In vitro intrinsic clearance assay (CLint (m)). The conditions noted are these: female CD1 mouse liver microsomes, 0.5 μM compound. The data set is classed as in vitro ADME. As for the experimental part: […]; 0.5 mg (mL 50 mM potassium phosphate buffer)^−1, pH 7.4), and the reaction was started by the addition of excess NADPH (8 mg (mL 50 mM potassium phosphate buffer)^−1, pH 7.4). Immediately, at time zero, then at 3, 6, 9, 15 and 30 min, an aliquot (50 μL) of the incubation mixture was removed and mixed with acetonitrile (100 μL) to stop the reaction. Internal standard was added to all samples, the samples were centrifuged (10 min, 5 °C, 3270 g) to sediment precipitated protein and the plates then sealed prior to UPLC–MS/MS analysis using a Quattro Premier XE (Waters Corp., USA).
XLfit (IDBS, UK) was used to calculate the exponential decay and consequently the rate constant (k) from the ratio of peak area of test compound to internal standard at each time point. The rate of intrinsic clearance (CLint: [mL min^−1 (g liver)^−1]) of each test compound was then calculated using Equation (1), in which V [mL (mg protein)^−1] is the incubation volume per mg protein added, and microsomal protein yield is taken as 52.5 mg protein per gram of liver. Verapamil (0.5 μM) was used as a positive control to confirm acceptable assay performance.
A general note: Liver microsomes are vesicles of endoplasmic reticulum, rich in cytochrome P450 enzymes.

Molecules are shown by their SMILES. Read-outs that look alike come from different tables or passages of the source.

Description for T. brucei: (§1) Parasite and NMT assays: These were carried out as described previously.[8–10]
Description for TbNMT: as §1
Description for hNMT: as §1

`COc1cc(C2SCC(=O)N2Cc2ccccc2)ccc1O` (stereo not shown) [Compound 1, 3-Benzyl-2-(4-hydroxy-3-methoxyphenyl)thiazolidin-4-one]: the EC50 with T. brucei and in the data set on hMRC5 was greater than 50 µM in each case. In addition, the IC50 on hNMT was 28 µM; at TbNMT (read-out: IC50 TbNMT), 22 µM. The “LE TbNMT (ligand efficiency)” value at TbNMT is recorded as 0.29.
In the data set with T. brucei, `COc1cc(C2SCC(=O)N2Cc2ccco2)ccc1O` (stereo not shown) [Compound 2, 3-(Furan-2-ylmethyl)-2-(4-hydroxy-3-methoxyphenyl)thiazolidin-4-one] returned an EC50 greater than 50 µM. Moreover, the IC50 is greater than 100 µM against hNMT and 7.6 µM on TbNMT (read-out: IC50 TbNMT). The “LE TbNMT (ligand efficiency)” value at TbNMT is 0.33.
`O=C1CSC(c2ccccn2)N1c1ccc(Cl)cc1` (stereo not shown) [Compound 10, 3-(4-Chlorophenyl)-2-(pyridin-2-yl)thiazolidin-4-one] gave an EC50 in the data set with T. brucei greater than 50 µM. The IC50 against hNMT and on TbNMT (read-out: IC50 TbNMT) was greater than 100 µM throughout.
In turn, `O=C1CSC(c2ccccn2)N1c1ccccc1Cl` (stereo not shown) [Compound 11, 3-(2-Chlorophenyl)-2-(pyridin-2-yl)thiazolidin-4-one] displayed an EC50 in the data set on T. brucei greater than 50 µM. Further, the IC50 against hNMT was greater than 100 µM; on TbNMT (read-out: IC50 TbNMT), 32 µM. For the same compound, on TbNMT, the “LE TbNMT (ligand efficiency)” value is 0.32.
The like results for `O=C1CSC(c2ccccc2)N1Cc1ccccn1` (stereo not shown) [Compound 12, 2-Phenyl-3-(pyridin-2-ylmethyl)thiazolidin-4-one] were, in that order, greater than 50 µM, greater than 100 µM, 5.9 µM and 0.39.
`COc1cc(C2SCC(=O)N2Cc2ccccn2)ccc1O` (stereo not shown) [Compound 13, 2-(4-Hydroxy-3-methoxyphenyl)-3-(pyridin-2-ylmethyl)thiazolidin-4-one] showed an EC50 with T. brucei of 14 µM. For the same compound, the figures for the concentration for half-maximal inhibition (IC50) on hNMT and on TbNMT (IC50 TbNMT) were greater than 100 µM and 0.27 µM, respectively. For the same compound, at TbNMT, the “LE TbNMT (ligand efficiency)” value is listed as 0.42. In addition, at TbNMT (relative to parent/starting compound), the “improvement in potency at TbNMT” value worked out at 20 fold.
In the case of `CCOC(=O)CN1C(=O)COc2ccccc21` [Compound 14, Ethyl 2-(3-oxo-2H-benzo[b][1,4]oxazin-4(3H)-yl)acetate], the concentration giving a half-maximal response (EC50) in the data set with T. brucei and in the data set on hMRC5 was greater than 50 µM throughout. Besides, the IC50 against hNMT was greater than 100 µM; against TbNMT (IC50 TbNMT), 12 µM. Moreover, the “LE TbNMT (ligand efficiency)” value on TbNMT is 0.42.
Regarding `O=C1COc2ccccc2N1Cc1ccncc1` [Compound 26, 4-(Pyridin-4-ylmethyl)-2H-benzo[b][1,4]oxazin-3(4H)-one], the IC50 at hNMT and at TbNMT (read-out: IC50 TbNMT) was greater than 100 µM each time.
On to `Cc1noc(CN2C(=O)COc3ccccc32)n1` [Compound 27, 4-((3-Methyl-1,2,4-oxadiazol-5-yl)methyl)-2H-benzo[b][1,4]oxazin-3(4H)-one], for which the IC50 against hNMT and on TbNMT (read-out: IC50 TbNMT) was greater than 100 µM in each case.
As to `Cc1nc(CN2C(=O)COc3ccccc32)no1` [Compound 28, 4-((5-Methyl-1,2,4-oxadiazol-3-yl)methyl)-2H-benzo[b][1,4]oxazin-3(4H)-one], the half-maximal inhibitory concentration (IC50) against hNMT is greater than 100 µM; at TbNMT (read-out: IC50 TbNMT), 7 µM. For the same compound, the “LE TbNMT (ligand efficiency)” value at TbNMT is 0.40.
As to `CC(C)Cc1nc(CN2C(=O)COc3ccccc32)no1` [Compound 29, 4-((5-Isobutyl-1,2,4-oxadiazol-3-yl)methyl)-2H-benzo[b][1,4]oxazin-3(4H)-one], the IC50 against hNMT was greater than 100 µM; on TbNMT (read-out: IC50 TbNMT), 18 µM. The “LE TbNMT (ligand efficiency)” value at TbNMT is 0.32.
`CC(C)Cc1cc(CN2C(=O)COc3ccccc32)no1` [Compound 30, 4-((5-Isobutylisoxazol-3-yl)methyl)-2H-benzo[b][1,4]oxazin-3(4H)-one]: the IC50 against hNMT is 30 µM; at TbNMT (read-out: IC50 TbNMT), 9 µM. At TbNMT, the “LE TbNMT (ligand efficiency)” value is reported as 0.34.
The like results for `Cc1cccc(CN2C(=O)COc3ccccc32)n1` [Compound 31, 4-((6-Methylpyridin-2-yl)methyl)-2H-benzo[b][1,4]oxazin-3(4H)-one] were, in that order, 69 µM, 41 µM and 0.31.
In the case of `Cn1ccc(CN2C(=O)COc3ccccc32)n1` [Compound 32, 4-((1-Methyl-1H-pyrazol-3-yl)methyl)-2H-benzo[b][1,4]oxazin-3(4H)-one], the IC50 was greater than 100 µM against hNMT and 80 µM at TbNMT (read-out: IC50 TbNMT).
For `Cc1cc(CN2C(=O)C(C)Oc3ccccc32)no1` (stereo not shown) [Compound 34, 2-Methyl-4-((5-methylisoxazol-3-yl)methyl)-2H-benzo[b][1,4]oxazin-3(4H)-one], in that order: greater than 100 µM and greater than 100 µM.
For `Cc1cc(CN2C(=O)COc3ccc(Cl)cc32)no1` [Compound 35, 6-Chloro-4-((5-methylisoxazol-3-yl)methyl)-2H-benzo[b][1,4]oxazin-3(4H)-one], in that order: greater than 100 µM and greater than 100 µM.
For `Cc1cc(CN2C(=O)COc3cc(Cl)ccc32)no1` [Compound 36, 7-Chloro-4-((5-methylisoxazol-3-yl)methyl)-2H-benzo[b][1,4]oxazin-3(4H)-one], the IC50 against hNMT was greater than 100 µM; on TbNMT (read-out: IC50 TbNMT), 7.1 µM. Moreover, the “LE TbNMT (ligand efficiency)” value on TbNMT is 0.37.
Turning to `Cc1cc(CN2C(=O)COc3cc(Br)ccc32)no1` [Compound 37, 7-Bromo-4-((5-methylisoxazol-3-yl)methyl)-2H-benzo[b][1,4]oxazin-3(4H)-one], the figures for the IC50 at hNMT and at TbNMT (read-out: IC50 TbNMT) were greater than 100 µM and 6.4 µM, respectively. Besides, the “LE TbNMT (ligand efficiency)” value at TbNMT is on record as 0.37.
For `Cc1cc(CN2C(=O)COc3c(Br)cccc32)no1` [Compound 38, 8-Bromo-4-((5-methylisoxazol-3-yl)methyl)-2H-benzo[b][1,4]oxazin-3(4H)-one], in that order: greater than 100 µM, 11 µM and 0.37.
`Cc1cc(CN2C(=O)COc3c(CCCCC4CCNCC4)cccc32)no1` [Compound 39, 4-((5-Methylisoxazol-3-yl)methyl)-8-(4-(piperidin-4-yl)butyl)-2H-benzo[b][1,4]oxazin-3(4H)-one]: the “CLint (m)” value in data set [1] is listed as 2.0 mL min^−1 (g liver)^−1. For the same compound, the EC50 in the data set with T. brucei was 0.41 µM; in the data set with hMRC5 it was greater than 50 µM.
With `Cc1cc(CN2C(=O)COc3c(CCCCN4CCCN(C)CC4)cccc32)no1` [Compound 40, 4-(4-(4-((5-Methylisoxazol-3-yl)methyl)-3-oxo-3,4-dihydro-2H-benzo[b][1,4]oxazin-8-yl)butyl)homopiperazine-1-methyl], the EC50 came to 0.08 µM with T. brucei and 24 µM in the data set on hMRC5. In the data set with T. brucei, the Selectivity ratio came to 13. The values for the IC50 against hNMT and on TbNMT (read-out: IC50 TbNMT) were 1 µM and less than 0.002 µM, respectively. Also, the “LE TbNMT (ligand efficiency)” value at TbNMT is greater than 0.38.
On to `Cc1cc(CN2C(=O)COc3cc(CCCOC[C@@H]4CCN(C)C4)ccc32)no1` [Compound 42, (R)-4-((5-Methylisoxazol-3-yl)methyl)-7-(3-((1-methylpyrrolidin-3-yl)methoxy)propyl)-2H-benzo[b][1,4]oxazin-3(4H)-one], for which, in data set [1], the “CLint (m)” value is given as 7.0 mL min^−1 (g liver)^−1. Further, the EC50 was 0.35 µM with T. brucei and greater than 50 µM in the data set on hMRC5. Also, the Selectivity ratio with T. brucei is 69. The IC50 against hNMT was found to be 24 µM; on TbNMT (read-out: IC50 TbNMT) it was 0.009 µM. Besides, the “LE TbNMT (ligand efficiency)” value at TbNMT was 0.38.
`Cc1cc(CN2C(=O)COc3cc(CCCOC4CCNCC4)ccc32)no1` [Compound 43, 4-((5-Methylisoxazol-3-yl)methyl)-7-(3-(piperidin-4-yloxy)propyl)-2H-benzo[b][1,4]oxazin-3(4H)-one]: the concentration for a half-maximal effect (EC50) was 0.15 µM in the data set on T. brucei and 22 µM in the data set with hMRC5.
